Data reported in paper PMC7485652 (Saudi Journal of Medicine & Medical Sciences, 2020).
Read-outs that look alike come from different tables or passages of the source. Values belong to the compound of their own block, whether it stands above or below them.

Legend:
[1] = cited from earlier work; for decrease of plasma concentration of quetiapine: administration of lamotrigine
[2] = for plasma level of quetiapine / hmax: male rats; for hmax: mean±SD
CYP3A4 = conditions: cited from earlier work
[3] = with probenecid, by inhibition of UGT glucuronidation enzymes; cited from earlier work
[4] = quetiapine 50 mg/kg oral after probenecid 50 mg/kg oral
[5] = quetiapine alone, 50 mg/kg single oral dose

plasma level of quetiapine [2, 4]: 323 ± 128 ng/mL | hmax [2, 4]: 0.63 ± 0.3 h | plasma level of quetiapine [2, 5]: 155 ± 37 ng/mL | hmax [2, 5]: 5 ± 2 h | difference in half-life of quetiapine between groups ([2]; quetiapine plus probenecid vs quetiapine alone, rats): no significant difference
Compound: OCCOCCN1CCN(C2=Nc3ccccc3Sc3ccccc32)CC1 [Quetiapine]
decrease of plasma concentration of quetiapine ([1]; study with 22 patients): 58% | decrease of plasma concentration of quetiapine ([1]; study with 144 patients): 17% | increase of plasma level of quetiapine ([1]; co-administered valproic acid, elderly patients): 77% | increase of Cmax of quetiapine ([1]; coadministered with sodium divalproex, adult patients, nonsignificant): 17% | change in AUC τ of quetiapine ([1]; coadministered with sodium divalproex, adult patients): no changes | effect of coadministration on quetiapine ([1]; coadministered with valproic acid, adult patients, ref Santoro et al. 20): nonsignificant results

Compound: CCCC(CCC)C(=O)O [Valproic acid]
inhibition of CYP3A4 (CYP3A4): weak inhibitor

Compound: Cc1cc2c(s1)Nc1ccccc1N=C2N1CCN(C)CC1 [olanzapine]
level of olanzapine [3]: increases
